Measurements taken from patent publication US9695154B2, “Heteroaryl inhibitors of sumo activating enzyme” (MILLENNIUM PHARMACEUTICALS, INC., priority 2013, dated 2017).

Molecular target: T1, recombinant human SAE enzyme (Homo sapiens, UniProt Q9UBT2)
T1 sequence (Q9UBT2 1-640): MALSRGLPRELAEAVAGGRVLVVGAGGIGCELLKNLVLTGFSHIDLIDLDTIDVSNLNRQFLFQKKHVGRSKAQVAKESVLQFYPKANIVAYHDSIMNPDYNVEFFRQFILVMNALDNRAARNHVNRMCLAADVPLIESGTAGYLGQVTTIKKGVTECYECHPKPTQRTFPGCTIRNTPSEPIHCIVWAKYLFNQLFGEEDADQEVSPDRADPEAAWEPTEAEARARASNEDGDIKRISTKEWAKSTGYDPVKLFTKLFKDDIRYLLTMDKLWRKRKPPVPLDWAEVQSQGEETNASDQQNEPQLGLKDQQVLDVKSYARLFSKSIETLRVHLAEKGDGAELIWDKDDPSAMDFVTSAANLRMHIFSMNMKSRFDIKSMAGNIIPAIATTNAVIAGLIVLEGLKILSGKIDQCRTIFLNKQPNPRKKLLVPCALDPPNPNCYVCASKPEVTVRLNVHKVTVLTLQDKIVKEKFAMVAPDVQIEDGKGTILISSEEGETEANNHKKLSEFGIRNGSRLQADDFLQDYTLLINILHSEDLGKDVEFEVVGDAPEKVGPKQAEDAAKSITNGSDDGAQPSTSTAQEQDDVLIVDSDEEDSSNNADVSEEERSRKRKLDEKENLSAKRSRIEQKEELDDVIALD
T1 sequence (Q9UBE0 1-346 partner): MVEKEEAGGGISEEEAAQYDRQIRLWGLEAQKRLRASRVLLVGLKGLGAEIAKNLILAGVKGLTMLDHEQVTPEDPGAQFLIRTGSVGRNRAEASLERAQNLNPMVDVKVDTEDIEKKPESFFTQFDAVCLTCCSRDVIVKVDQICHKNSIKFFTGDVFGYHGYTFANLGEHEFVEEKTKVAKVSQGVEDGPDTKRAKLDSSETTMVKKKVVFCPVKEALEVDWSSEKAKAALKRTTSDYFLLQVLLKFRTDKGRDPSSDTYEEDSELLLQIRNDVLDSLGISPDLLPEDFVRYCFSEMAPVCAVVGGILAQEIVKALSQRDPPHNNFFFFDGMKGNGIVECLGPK
Experiment: SAE HTRF Enzyme Assay
Assay type: biochemical
Conditions: for IC50: class symbols A-C; for inhibition at 0.111 µM: compound concentration 0.111 μM, read-out: Percent Inhibition
Outline: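 SAE 0.11 nM; ATP 0.5 μM; Sumo-Flag 0.125 μM; Ubc9-GST 0.01 μM; 250 μM GSH, 5 mM MgCl2, pH 7.5. 105 min, 24° C. EDTA/KF stop plus Eu/APC antibodies, 2 h, TR-FRET. % inhibition or IC50.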

`NS(=O)(=O)OC[C@H]1C[C@@H](Nc2ncncc2C(=O)c2cc(C(F)(F)F)n(Cc3cccc(Cl)c3)n2)[C@@H](F)[C@@H]1O` [Compound I-316, {(1R,2R,3R,4R)-4-[(5-{[1-(3-Chlorobenzyl)-5-(trifluoromethyl)-1H-pyrazol-3-yl]carbonyl}pyrimidin-4-yl)amino]-3-fluoro-2-hydroxycyclopentyl}methyl sulfamate] showed an IC50 of under 10 nM and an inhibition at 0.111 µM of 94%.

`NS(=O)(=O)OC[C@H]1C[C@@H](Nc2ncncc2C(=O)c2ccn(Cc3ccccc3)n2)[C@@H](F)[C@@H]1O` [Compound I-317, [(1R,2R,3R,4R)-4-({5-[(1-Benzyl-1H-pyrazol-3-yl)carbonyl]pyrimidin-4-yl}amino)-3-fluoro-2-hydroxycyclopentyl]methyl sulfamate] showed an IC50 of under 10 nM and an inhibition at 0.111 µM of 96%.

In the case of `NS(=O)(=O)OC[C@H]1C[C@@H](Nc2ncncc2C(=O)c2ccn(Cc3c(F)c(F)c(F)c(F)c3F)n2)[C@H](O)[C@@H]1O` [Compound I-318, {(1R,2R,3S,4R)-2,3-dihydroxy-4-[(5-{[1-(pentafluorobenzyl)-1H-pyrazol-3-yl]carbonyl}pyrimidin-4-yl)amino]cyclopentyl}methyl sulfamate], the IC50 is reported as under 10 nM and the inhibition at 0.111 µM is reported as 95%.

`NS(=O)(=O)OC[C@@H]1C[C@@H](Nc2ncncc2C(=O)c2ccn(Cc3cccc(Br)c3)c2)C[C@@H]1O` [Compound I-319, {(1S,2S,4R)-4-[(5-{[1-(3-Bromobenzyl)-1H-pyrrol-3-yl]carbonyl}pyrimidin-4-yl)amino]-2-hydroxycyclopentyl}methyl sulfamate] gave an IC50 of under 10 nM and an inhibition at 0.111 µM of 99%.

In the case of `NS(=O)(=O)OC[C@H]1C[C@@H](Nc2ncncc2C(=O)c2cc(Cl)n(Cc3ccc(F)c(Br)c3)c2)[C@@H](F)[C@@H]1O` [Compound I-320, {(1R,2R,3R,4R)-4-[(5-{[1-(3-bromo-4-fluorobenzyl)-5-chloro-1H-pyrrol-3-yl]carbonyl}pyrimidin-4-yl)amino]-3-fluoro-2-hydroxycyclopentyl}methyl sulfamate], the IC50 is reported as under 10 nM and the inhibition at 0.111 µM is reported as 98%.

Work on `C=CS(=O)(=O)c1cccc(Cn2ccc(C(=O)c3cncnc3N[C@@H]3C[C@H](COS(N)(=O)=O)[C@@H](O)[C@H]3O)n2)c1` [Compound I-321, [(1R,2R,3S,4R)-2,3-Dihydroxy-4-{[5-({1-[3-(vinylsulfonyl)benzyl]-1H-pyrazol-3-yl}carbonyl)pyrimidin-4-yl]amino}cyclopentyl]methyl sulfamate] yielded an IC50 of 10 to 100 nM and an inhibition at 0.111 µM of 89%.

`NS(=O)(=O)OC[C@H]1C[C@@H](Nc2ncncc2C(=O)c2ccn(Cc3cc4ccccc4s3)c2)[C@@H](F)[C@@H]1O` [Compound I-322, {(1R,2R,3R,4R)-4-[(5-{[1-(1-benzothiophen-2-ylmethyl)-1H-pyrrol-3-yl]carbonyl}pyrimidin-4-yl)amino]-3-fluoro-2-hydroxycyclopentyl}methyl sulfamate] gave an IC50 of under 10 nM and an inhibition at 0.111 µM of 99%.

With `NS(=O)(=O)OC[C@H]1C[C@@H](Nc2ncncc2C(=O)c2ccn(Cc3cc(Br)ccn3)n2)[C@H](O)[C@@H]1O` [Compound I-324, [(1R,2R,3S,4R)-4-{[5-({1-[(4-bromopyridin-2-yl)methyl]-1H-pyrazol-3-yl}carbonyl)pyrimidin-4-yl]amino}-2,3-dihydroxycyclopentyl]methyl sulfamate] the IC50 was under 10 nM and the inhibition at 0.111 µM was 100%.

`COc1cccc(Cn2ccc(C(=O)c3cncnc3N[C@@H]3C[C@H](COS(N)(=O)=O)[C@@H](O)[C@H]3O)n2)c1` [Compound I-325, {(1R,2R,3S,4R)-2,3-dihydroxy-4-[(5-{[1-(3-methoxybenzyl)-1H-pyrazol-3-yl]carbonyl}pyrimidin-4-yl)amino]cyclopentyl}methyl sulfamate] showed an IC50 of under 10 nM and an inhibition at 0.111 µM of 99%.

Compound `NS(=O)(=O)OC[C@H]1C[C@@H](Nc2ncncc2C(=O)c2ccn(Cc3cc(F)c(F)c(F)c3)n2)[C@H](O)[C@@H]1O` [Compound I-326, {(1R,2R,3S,4R)-2,3-dihydroxy-4-[(5-{[1-(3,4,5-trifluorobenzyl)-1H-pyrazol-3-yl]carbonyl}pyrimidin-4-yl)amino]cyclopentyl}methyl sulfamate] has an IC50 of under 10 nM and an inhibition at 0.111 µM of 95%.

In the case of `NS(=O)(=O)OC[C@H]1C[C@@H](Nc2ncncc2C(=O)c2ccn(Cc3cccc(F)c3F)n2)[C@H](O)[C@@H]1O` [Compound I-327, {(1R,2R,3S,4R)-4-[(5-{[1-(2,3-difluorobenzyl)-1H-pyrazol-3-yl]carbonyl}pyrimidin-4-yl)amino]-2,3-dihydroxycyclopentyl}methyl sulfamate], the IC50 is reported as under 10 nM and the inhibition at 0.111 µM is reported as 99%.

`NS(=O)(=O)OC[C@H]1C[C@@H](Nc2ncncc2C(=O)c2ccn(Cc3ccc(F)cc3C(F)(F)F)n2)C[C@@H]1O` [Compound I-328, [(1R,2S,4R)-4-{[5-({1-[4-fluoro-2-(trifluoromethyl)benzyl]-1H-pyrazol-3-yl}carbonyl)pyrimidin-4-yl]amino}-2-hydroxycyclopentyl]methyl sulfamate] gave an IC50 of 10 to 100 nM and an inhibition at 0.111 µM of 65%.

For `NS(=O)(=O)OC[C@H]1C[C@@H](Nc2ncncc2C(=O)c2ccn(Cc3cc(F)c(F)cc3F)n2)C[C@@H]1O` [Compound I-329, {(1R,2S,4R)-2-hydroxy-4-[(5-{[1-(2,4,5-trifluorobenzyl)-1H-pyrazol-3-yl]carbonyl}pyrimidin-4-yl)amino]cyclopentyl}methyl sulfamate], the IC50 was under 10 nM and the inhibition at 0.111 µM was 93%.

For `C#CCn1ccc(C(=O)c2cncnc2N[C@@H]2C[C@H](COS(N)(=O)=O)[C@@H](O)C2)c1` [Compound I-330, {(1R,2S,4R)-2-hydroxy-4-[(5-{[1-{prop-2-yn-1-yl)-1H-pyrrol-3-yl]carbonyl}pyrimidin-4-yl)amino]cyclopentyl}methyl sulfamate], the IC50 was 10 to 100 nM and the inhibition at 0.111 µM was 82%.

For `NS(=O)(=O)OC[C@H]1C[C@@H](Nc2ncncc2C(=O)c2ccn(Cc3ccc(Cl)c(Cl)c3)c2)[C@@H](F)[C@@H]1O` [Compound I-331, {(1R,2R,3R,4R)-4-[(5-{[1-(3,4-dichlorobenzyl)-1H-pyrrol-3-yl]carbonyl}pyrimidin-4-yl)amino]-3-fluoro-2-hydroxycyclopentyl}methyl sulfamate], the IC50 was under 10 nM and the inhibition at 0.111 µM was 99%.

For `NS(=O)(=O)OC[C@H]1C[C@@H](Nc2ncncc2C(=O)c2ccn(Cc3cccc(Br)c3)c2)C[C@@H]1O` [Compound I-333, {(1R,2S,4R)-4-[(5-{[1-(3-bromobenzyl)-1H-pyrrol-3-yl]carbonyl}pyrimidin-4-yl)amino]-2-hydroxycyclopentyl}methyl sulfamate], the IC50 was under 10 nM and the inhibition at 0.111 µM was 99%.

Compound `NS(=O)(=O)OC[C@H]1C[C@@H](Nc2ncncc2C(=O)c2ccn(Cc3cc(F)cc(Cl)c3)n2)[C@H](O)[C@@H]1O` [Compound I-334, {(1R,2R,3S,4R)-4-[(5-{[1-(3-chloro-5-fluorobenzyl)-1H-pyrazol-3-yl]carbonyl}pyrimidin-4-yl)amino]-2,3-dihydroxycyclopentyl}methyl sulfamate] has an IC50 of under 10 nM and an inhibition at 0.111 µM of 98%.

For `NS(=O)(=O)OC[C@H]1C[C@@H](Nc2ncncc2C(=O)c2cc(CO)n(Cc3ccccc3)n2)C[C@@H]1O` [Compound I-335, {(1R,2S,4R)-4-[(5-{[1-Benzyl-5-(hydroxymethyl)-1H-pyrazol-3-yl]carbonyl}pyrimidin-4-yl)amino]-2-hydroxycyclopentyl}methyl sulfamate], the IC50 was under 10 nM and the inhibition at 0.111 µM was 97%.
